We go through one compound from US20200375945A1, “INHALABLE FORMULATION OF A SOLUTION CONTAINING INDACATEROL MALEATE AND GLYCOPYRRONIUM BROMIDE” (priority 2019, published 2020).

A short description of data set [1]: Aerodynamic particle size distribution on Next Generation Impactor (NGI). The format is physicochemical. The note with it: sample 2 sprayed with soft mist inhaler, NGI at 30 L/min. As for the experimental part: Sample 2 was sprayed with a soft mist inhaler. Aerodynamic particle size distribution of droplets of sample 2 was measured on Next Generation Impactor (NGI). Next Generation Impactor operated at a flow rate of 30 L/min was used for determination of particle size distribution. For each of the impactor experiments, the impactor collection stages were coated with a silicone oil. The aerodynamic particle size distribution is expressed in terms of mass median aerodynamic diameter (MMAD) and Geometric Standard Deviation (GSD).

A short description of data set [2]: Tested concentration and assay of the active ingredients in the inhalation solution. The data set is classed as physicochemical. The conditions noted are these: in the sample solutions (ethanol/water, benzalkonium chloride, edetate disodium dihydrate).

`CCc1cc2c(cc1CC)CC(NC[C@H](O)c1ccc(O)c3[nH]c(=O)ccc13)C2.O=C(O)/C=C\C(=O)O` [Indacaterol maleate, 5-[(R)-2-(5,6-diethyl-indan-2-ylamino)-1-hydroxy-ethyl]-8-hydroxy-(1H)-quinolin-2-one]: the “MMAD (mass median aerodynamic diameter)” value in data set [1] was 3.37 μm. Besides, in data set [2], the “Dissolution of the active in the solution” value is “completely dissolved”.
